Results reported in article PMC11852993, “Discovery of small molecules against porcine reproductive and respiratory syndrome virus replication by targeting NendoU activity” (Journal of Virology, 2024).
Where two headings read alike, the source gives them in different places.

Experiments:
VR-NSP11 [1] = target: T1, VR-NSP11 (PRRSV VR2332, UniProt Q9WJB2); experiment: microscale thermophoresis; format: binding
T1 construct: gene rep; mature NSP11 cut from replicase polyprotein 1ab (ORF1b part); N-terminal 6xHN tag (pET6xHN-N), expressed in E. coli BL21(DE3), TALON purified
Source text: microscale thermophoresis on VR-NSP11 | The MST analysis confirmed a direct interaction between VR-NSP11 and both compounds

VR-NSP11 [2] = target: T1, VR-NSP11; experiment: FRET NendoU assay (6-FAM/BHQ-1 RNA R23.[…]); format: biochemical

T1 sequence (Q9WJB2 3585-3807): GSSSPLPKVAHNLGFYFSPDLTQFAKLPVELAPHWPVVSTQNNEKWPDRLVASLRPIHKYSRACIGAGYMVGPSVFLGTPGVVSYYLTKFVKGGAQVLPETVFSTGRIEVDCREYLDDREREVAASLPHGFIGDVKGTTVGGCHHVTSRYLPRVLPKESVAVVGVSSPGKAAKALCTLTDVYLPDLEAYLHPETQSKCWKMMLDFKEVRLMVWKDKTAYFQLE

| Compound | Kd (VR-NSP11 [1]) [µM] | IC50 (VR-NSP11 [2]; read-out: IC50) [µM] | IC50 (VR-NSP11 [2]; fluorescence at 2 h, 1 µM R23.1, HEPES pH 7.5, 50 mM KCl, 1 mM DTT, 25 °C, 1.2 µM enzyme) |
| --- | --- | --- | --- |
| CCc1c(C)nc(Nc2nc(C)c3ccc(OC)cc3n2)nc1O [A8-A2] | 23 | 24.6 |  |
| COc1ccc2c(C)nc(Nc3nc(C)c(C)c(=O)[nH]3)nc2c1 [Madrasin] |  |  | these IC50 values are higher than those of C5 and Madrasin |
